Test results taken from US8592449B1, “Radiolabelled phenylimidazole-based ligands” (H. Lundbeck A/S, priority 2010, dated 2013).

Tested on: PDE10A
Details: monkey, PET
Experimental: The monkey is sedated with ketamin (approximately 10 mg/kg), weighed, and maintained on a constant infusion of ketamin 15 mg/kg/h during transport. During transport the monkey is monitored by pulse oximetry and supported by oxygen. One venous catheter is applied for tracer administration and one venous catheter for blood radioactivity and PK sampling. Propofol is administered until the animal is anesthetized enough to intubate. After intubation the animal is maintained on sevoflurane inhalation anesthesia and artificial ventilation.
Blood samples (0.2 mL for radioactivity determination are taken at 0.5, 1, 3, 5, 10, 15, 20, 30, 45, 60 and 90 minutes after injection. The samples are labeled with time, date, sampling time in relation to injection, and project number.
PET scanning and arterial blood sampling is commenced upon start of the administration of the radiolabelled compound.

For `Cc1ccc(C)n2nc(CCc3nc(-c4ccccc4)cn3[11CH3])nc12` [[11C]Lu AE92686, 5,8-dimethyl-2-[2-([^11C-1-methyl]-4-phenyl-1H-imidazol-2-yl)-ethyl]-[1,2,4]triazolo[1,5-a]pyridine], the concentration in cerebellum (cerebellum (very low level of PDE10A)) was “low”, the “uptake and retention in striatum” value (striatum versus other brain regions) was “highest uptake and retention” and the brain entry (i.v. bolus) was “readily enters the brain”. The “time of peak regional tissue concentrations in brain” value (i.v. bolus, post injection) was 10 to 15 min.
